Measured values: patent US11420966B2 (ACLARIS THERAPEUTICS, INC., priority 2019, dated 2022)

How the values were obtained:
[1] = molecular target: JAK1 (Homo sapiens (Human), UniProt P23458); experiment: JAK1 enzyme activity assay (Thermo Fisher SelectScreen, Z-lyte); format: biochemical; conditions: read-out: JAK1 Inhibition IC50
Description: (§1) JAK1, JAK2, JAK3, and Tyk-2 Enzyme Activity Assays
(§2) The inhibitory potency of candidate compounds of JAK1, JAK2, and Tyk-2 was done at Thermo Fisher Scientific in their Selectscreen using a Z-lyte assay. Following are the assay details for each enzyme.
JAK: The 2×JAK-enzyme/Tyr 06 mixture is prepared in 50 mM HEPES pH 6.5, 0.01% BRIJ-35, 10 mM MgCl2, 1 mM EGTA, 0.02% NaN3. The final 10 μL of the Kinase Reaction consists of 21.2-91.5 ng JAK and 2 M Tyr 06 in 50 mM HEPES pH 7.0, 0.01% BRIJ-35, 10 mM MgCl2, 1 mM EGTA, 0.01% NaN3. After the one hour Kinase Reaction incubation, 5 μL of a 1:128 dilution of Development Reagent is added.
(§3) Data reduction for JAK1, JAK2 and TYK2 is done the same, independent of the enzyme run. In summary, background signal is defined in the absence of enzyme and uninhibited signal is defined in the presence of vehicle (2% DMSO) alone. Compounds were evaluated in an 11 point dose-response ranging from […] to 0.34 nM. IC50 values of compounds are determined using a 4 parameter logistical fit of emission ratio as a function of the concentration of compound.

[2] = system: IL-2 stimulated STAT5 phosphorylation on Tyr694 (JAK1/3); experiment: JAK1/3 cellular target modulation: IL-2 stimulated phospho-STAT5 in PBMC; format: cell-based; conditions: human PBMC, IL-2 25 ng/ml; read-out: IL2-STAT5 IC50
Text: (§4) JAK Cellular Target Modulation Assays
(§5) Target modulation was based upon the ability of a compound to inhibit JAK isoform specific phosphorylation of selected substrates. IL-2 stimulated STAT5 phosphorylation on Tyr694 was used to assess JAK1/3 compound selectivity. GM-CSF stimulated STAT5 phosphorylation on Tyr694 was used to assess JAK2 compound selectivity. IFNγ stimulated STAT1 phosphorylation on Tyr701 was used to assess JAK1/2 compound selectivity. IL-12 stimulated STAT4 phosphorylation on Tyr693 was used to assess JAK2/TYK2 compound selectivity. For all four assays, human PBMC from frozen stocks were thawed, pelleted, resuspended in complete media (90% RPMI, 10% heat inactivated FBS, 10 mM HEPES, 47 μM 2-ME, pen/strep) and placed in wells of a 96 well V-bottom plate at 200,000 per well in 120 μl complete media. Compounds were added as 15 μl per well of 10× working stock solutions in complete media with 1% DMSO (or medium with 1% DMSO for controls) and placed on a plate shaker in a 37° C. incubator with 5% CO2 for 1 hour with gentle shaking (setting of 3). Stimulation used the addition of soluble cytokines. For the JAK1/3 phospho-STAT5 assay, 15 μl of 10× working stock recombinant human IL-2 was added to a final concentration of 25 ng/ml. For the JAK2 phospho-STAT5 assay, 15 μl of 10× working stock recombinant human GM-CSF was added to a final concentration of 5 ng/ml. For the JAK1/2 phospho-STAT1 assay, 15 μl of 10× working stock of recombinant human IFNγ was added to a final concentration of 10 ng/ml. For the JAK2/TYK2 phospho-STAT4 assay, 15 μl of 10× working stock of recombinant human IL-12 was added to a final concentration of 1.7 ng/ml. Plates were then placed back on the plate shaker in the incubator for an additional 5, 5, 10, and 25 minutes respectively upon which the plates were removed from the incubator, sealed with a plate sealer and the cells pelleted at 400×g for 5 minutes. After pelleting, the media was removed by aspiration and the cells were lysed in assay specific cell lysis buffer. The levels of phospho-STATS were determined using a Phospho (Tyr694) STAT5a,b Whole Cell Lysate kit from Meso Scale Discovery. Levels of phospho-STAT1 were determined using a CST-PathScan Phospho-STAT1 (Tyr701) Sandwich ELISA kit. Levels of phospho-STAT4 were determined using a Phospho-STAT4 (Tyr693) Whole Cell Lysate kit from Meso Scale Discovery.

[3] = molecular target: Tyk-2 (Homo sapiens (Human), UniProt P29597); experiment: Tyk-2 enzyme activity assay (Thermo Fisher SelectScreen, Z-lyte); format: biochemical; conditions: read-out: Tyk-2 Inhibition IC50
Tyk-2, sequence (P29597 whole entry): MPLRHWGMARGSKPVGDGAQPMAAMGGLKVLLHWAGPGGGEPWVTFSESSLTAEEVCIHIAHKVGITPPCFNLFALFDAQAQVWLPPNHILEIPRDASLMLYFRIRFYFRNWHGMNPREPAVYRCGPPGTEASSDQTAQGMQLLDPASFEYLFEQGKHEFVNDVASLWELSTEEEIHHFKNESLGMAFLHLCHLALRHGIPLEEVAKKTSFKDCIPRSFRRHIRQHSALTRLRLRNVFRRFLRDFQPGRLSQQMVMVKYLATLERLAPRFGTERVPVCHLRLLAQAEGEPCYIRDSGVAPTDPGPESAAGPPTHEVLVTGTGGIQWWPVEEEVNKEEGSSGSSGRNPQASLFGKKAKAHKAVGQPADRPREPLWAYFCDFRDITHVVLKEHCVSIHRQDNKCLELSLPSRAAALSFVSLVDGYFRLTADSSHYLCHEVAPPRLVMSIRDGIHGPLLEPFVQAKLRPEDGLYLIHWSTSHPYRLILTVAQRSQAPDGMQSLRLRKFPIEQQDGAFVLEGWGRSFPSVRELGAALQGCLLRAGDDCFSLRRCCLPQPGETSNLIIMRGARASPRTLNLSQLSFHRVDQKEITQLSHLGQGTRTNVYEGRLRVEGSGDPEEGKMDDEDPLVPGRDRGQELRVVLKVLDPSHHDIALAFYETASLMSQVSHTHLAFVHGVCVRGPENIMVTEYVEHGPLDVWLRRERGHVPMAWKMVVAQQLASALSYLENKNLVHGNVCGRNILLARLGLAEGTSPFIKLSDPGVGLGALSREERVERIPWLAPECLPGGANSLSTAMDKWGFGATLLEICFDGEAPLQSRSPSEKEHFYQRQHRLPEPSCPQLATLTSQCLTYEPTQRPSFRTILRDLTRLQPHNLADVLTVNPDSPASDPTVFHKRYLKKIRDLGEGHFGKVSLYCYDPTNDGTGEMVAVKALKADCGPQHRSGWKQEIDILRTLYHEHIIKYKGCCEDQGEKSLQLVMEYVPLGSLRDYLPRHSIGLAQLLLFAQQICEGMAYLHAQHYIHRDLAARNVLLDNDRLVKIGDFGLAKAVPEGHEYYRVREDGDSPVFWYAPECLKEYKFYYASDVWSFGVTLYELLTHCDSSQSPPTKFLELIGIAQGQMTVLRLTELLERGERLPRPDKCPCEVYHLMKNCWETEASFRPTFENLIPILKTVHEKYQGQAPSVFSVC
Description: as §1, §2
TYK2: The 2×TYK2/Tyr 03 mixture is prepared in 50 mM HEPES pH 6.5, 0.01% BRIJ-35, 10 mM MgCl2, 1 mM EGTA, 0.02% NaN3. The final 10 μL Kinase Reaction consists of 3.75-15 ng TYK2 and 2 M Tyr 03 in 50 mM HEPES pH 7.0, 0.01% BRIJ-35, 10 mM MgCl2, 1 mM EGTA, 0.01% NaN3. After the one hour KinaseReaction incubation, 5 μL of a 1:4096 dilution of Development Reagent A is added.
as §3

[4] = molecular target: JAK3 (a.a. 781-1124) (Homo sapiens (Human), UniProt P52333); experiment: JAK3 enzyme activity assay (SRCtide phosphorylation, Caliper); format: biochemical; conditions: 1 uM ATP; read-out: JAK3 Inhibition IC50
JAK3 (a.a. 781-1124), sequence (P52333 781-1124): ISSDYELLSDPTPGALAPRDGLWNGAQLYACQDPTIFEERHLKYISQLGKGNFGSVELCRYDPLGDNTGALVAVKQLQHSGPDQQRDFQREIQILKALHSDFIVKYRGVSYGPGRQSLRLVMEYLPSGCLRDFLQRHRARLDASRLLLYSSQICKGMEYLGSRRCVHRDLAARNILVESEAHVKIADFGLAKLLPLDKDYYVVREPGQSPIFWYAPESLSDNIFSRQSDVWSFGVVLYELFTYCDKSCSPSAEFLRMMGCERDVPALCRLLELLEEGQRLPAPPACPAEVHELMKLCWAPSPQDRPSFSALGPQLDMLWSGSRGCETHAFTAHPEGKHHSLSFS
Description: as §1
Kinase reactions were run in a 384-well Greiner plate with 2% final DMSO concentration under the buffer conditions of 20 mM HEPES, pH 7.5, 10 mM MgCl2, 0.01% BSA, and 0.0005% Tween-20. The kinase reaction components were 2.5 nM JAK3, 1 μM SRCtide peptide and 1 uM ATP. Examples were tested in dose-response starting at 2 M (11 concentrations, 3-fold serial dilution, duplicate reactions). The reactions were incubated at room temperature for 40 minutes, then stopped by adding a 1:1 volume of 30 mM EDTA in 20 mM HEPES, pH 7.5 (15 mM EDTA final). After the reaction was stopped, the phosphorylated and unphosphorylated peptides were separated and quantified using a Caliper LC3000/EZ-Reader system and HTS Well Analyzer Software (Caliper, A PerkinElmer Company, Hopkinton, Mass.). GraFit (Erithacus Software Ltd., Horley, U.K.) was used to calculate inhibitor potency by fitting dose-response data to the 4-parameter logistical IC50 equation.

[5] = molecular target: JAK2 (Homo sapiens (Human), UniProt O60674); experiment: JAK2 enzyme activity assay (Thermo Fisher SelectScreen, Z-lyte); format: biochemical; conditions: read-out: JAK2 Inhibition IC50
JAK2, sequence (O60674 whole entry): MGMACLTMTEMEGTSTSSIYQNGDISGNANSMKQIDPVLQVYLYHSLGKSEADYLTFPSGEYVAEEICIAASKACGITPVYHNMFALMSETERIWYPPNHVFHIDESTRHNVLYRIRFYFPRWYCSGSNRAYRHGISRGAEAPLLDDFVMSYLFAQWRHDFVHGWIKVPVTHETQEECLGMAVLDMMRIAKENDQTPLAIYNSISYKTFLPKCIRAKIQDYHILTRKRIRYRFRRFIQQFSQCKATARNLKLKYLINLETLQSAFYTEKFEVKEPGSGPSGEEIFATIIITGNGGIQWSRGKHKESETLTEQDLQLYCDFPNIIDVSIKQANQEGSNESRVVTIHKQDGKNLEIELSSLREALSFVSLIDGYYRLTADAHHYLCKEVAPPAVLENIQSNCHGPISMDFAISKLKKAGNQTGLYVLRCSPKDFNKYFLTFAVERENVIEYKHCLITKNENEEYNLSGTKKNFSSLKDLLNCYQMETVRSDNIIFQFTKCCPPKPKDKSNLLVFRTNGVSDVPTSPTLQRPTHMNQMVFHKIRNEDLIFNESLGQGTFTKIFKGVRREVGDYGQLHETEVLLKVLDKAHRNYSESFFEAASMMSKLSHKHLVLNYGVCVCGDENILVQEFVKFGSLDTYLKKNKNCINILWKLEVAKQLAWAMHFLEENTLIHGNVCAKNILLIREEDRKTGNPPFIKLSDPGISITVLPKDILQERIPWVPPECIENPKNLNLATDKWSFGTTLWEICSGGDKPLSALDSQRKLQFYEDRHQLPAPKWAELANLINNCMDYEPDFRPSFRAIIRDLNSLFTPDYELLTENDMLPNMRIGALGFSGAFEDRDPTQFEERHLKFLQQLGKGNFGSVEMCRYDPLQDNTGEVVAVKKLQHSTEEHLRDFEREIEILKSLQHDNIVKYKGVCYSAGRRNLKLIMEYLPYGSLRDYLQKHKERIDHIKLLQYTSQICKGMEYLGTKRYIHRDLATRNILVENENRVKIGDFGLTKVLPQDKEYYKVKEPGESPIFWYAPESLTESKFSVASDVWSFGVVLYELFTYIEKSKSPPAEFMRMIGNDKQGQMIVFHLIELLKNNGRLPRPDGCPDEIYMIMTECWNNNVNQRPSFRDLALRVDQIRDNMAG
Description: as §1, §2
JAK2: The 2×JAK2/Tyr 06 mixture is prepared in 50 mM HEPES pH 7.5, 0.01% BRIJ-35, 10 mM MgCl2, 1 mM EGTA. The final 10 μL Kinase Reaction consists of 0.12-0.5 ng JAK2 and 2 M Tyr 06 in 50 mM HEPES pH 7.5, 0.01% BRIJ-35, 10 mM MgCl2, 1 mM EGTA. After the one hour Kinase Reaction incubation, 5 μL of a 1:128 dilution of Development Reagent A is added.
as §3

[6] = system: IFNγ stimulated STAT1 phosphorylation on Tyr701 (JAK1/2); experiment: JAK1/2 cellular target modulation: IFNγ stimulated phospho-STAT1 in PBMC; format: cell-based; conditions: human PBMC, IFNγ 10 ng/ml; read-out: Infγ-STAT1 IC50
Text: as §4, §5

JAK1, sequence (P23458 whole entry): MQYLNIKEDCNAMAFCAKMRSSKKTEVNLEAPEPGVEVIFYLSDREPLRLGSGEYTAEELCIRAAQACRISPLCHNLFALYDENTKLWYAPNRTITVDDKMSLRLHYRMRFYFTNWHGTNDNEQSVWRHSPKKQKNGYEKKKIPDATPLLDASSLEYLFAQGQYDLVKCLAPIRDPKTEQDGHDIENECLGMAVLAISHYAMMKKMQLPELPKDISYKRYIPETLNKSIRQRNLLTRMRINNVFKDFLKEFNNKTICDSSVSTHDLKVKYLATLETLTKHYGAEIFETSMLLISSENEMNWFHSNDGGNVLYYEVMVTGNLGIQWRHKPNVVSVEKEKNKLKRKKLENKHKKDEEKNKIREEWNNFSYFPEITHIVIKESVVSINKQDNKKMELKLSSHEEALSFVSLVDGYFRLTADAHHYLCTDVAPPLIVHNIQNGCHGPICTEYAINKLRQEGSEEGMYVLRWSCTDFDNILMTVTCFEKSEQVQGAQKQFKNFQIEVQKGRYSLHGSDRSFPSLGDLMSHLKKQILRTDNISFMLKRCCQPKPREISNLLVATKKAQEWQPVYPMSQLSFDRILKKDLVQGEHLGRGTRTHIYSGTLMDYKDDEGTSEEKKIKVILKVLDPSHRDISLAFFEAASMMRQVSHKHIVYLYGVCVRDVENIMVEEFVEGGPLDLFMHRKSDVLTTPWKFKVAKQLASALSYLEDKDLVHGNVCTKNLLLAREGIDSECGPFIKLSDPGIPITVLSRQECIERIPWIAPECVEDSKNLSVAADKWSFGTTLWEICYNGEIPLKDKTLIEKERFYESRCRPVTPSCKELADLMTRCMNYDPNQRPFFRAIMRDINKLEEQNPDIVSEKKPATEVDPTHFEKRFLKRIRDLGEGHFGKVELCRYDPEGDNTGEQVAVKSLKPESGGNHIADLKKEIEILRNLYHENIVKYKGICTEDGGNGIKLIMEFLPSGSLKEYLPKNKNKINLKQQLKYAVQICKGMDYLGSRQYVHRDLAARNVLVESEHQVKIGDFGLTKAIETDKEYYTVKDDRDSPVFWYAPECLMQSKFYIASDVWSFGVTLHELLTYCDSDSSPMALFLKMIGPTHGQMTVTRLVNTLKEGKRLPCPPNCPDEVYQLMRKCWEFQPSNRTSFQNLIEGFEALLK

SMILES | IC50 [1] | IC50 [2] | IC50 [3] | IC50 [4] | IC50 [5] | IC50 [6]
C[C@@H]1C[C@H](Nc2c(-c3ncco3)cnc3[nH]ccc23)CN(C(=O)CC#N)C1 (single isomer, unassigned) [Example 9] | 100 to 1000 nM | > 1000 nM | 100 to 1000 nM | 10 to 100 nM | 100 to 1000 nM | 
N#CCC(=O)N1CCC[C@@H](Nc2c(-c3nnc[nH]3)cnc3[nH]ccc23)C1 [Example 11, (R)-3-(3-((5-(4H-1,2,4-triazol-3-yl)-1H-pyrrolo[2,3-b]pyridin-4-yl)amino)piperidin-1-yl)-3-oxopropanenitrile] | 10 to 100 nM | > 1000 nM | 100 to 1000 nM | 10 to 100 nM | 10 to 100 nM | > 1000 nM
Cn1ccnc1-c1cnc2[nH]ccc2c1N[C@@H]1CCCN(C(=O)CC#N)C1 [Example 17, (R)-3-(3-((5-(1-methyl-1H-imidazol-2-yl)-1H-pyrrolo[2,3-b]pyridin-4-yl)amino)piperidin-1-yl)-3-oxopropanenitrile] | > 1000 nM | > 1000 nM | > 1000 nM | > 1000 nM | > 1000 nM | 
CNC(=O)c1coc(-c2cnc3[nH]ccc3c2N[C@H]2C[C@@H](C)CN(C(=O)CC#N)C2)n1 [Example 32, 2-(4-(((3S,5R)-1-(2-cyanoacetyl)-5-methylpiperidin-3-yl)amino)-1H-pyrrolo[2,3-b]pyridin-5-yl)-N-methyloxazole-4-carboxamide] | 100 to 1000 nM | > 1000 nM | 100 to 1000 nM | 10 to 100 nM | 100 to 1000 nM | 
CN(C)S(=O)(=O)Nc1ccnc(-c2cnc3[nH]ccc3c2N[C@@H]2CCCN(C(=O)CC#N)C2)c1 [Example 54, (R)-N-(2-(4-((1-(2-cyanoacetyl)piperidin-3-yl)amino)-1H-pyrrolo[2,3-b]pyridin-5-yl)pyridin-4-yl)N,N-dimethyl sulfuric diamide] | 10 to 100 nM | > 1000 nM | 100 to 1000 nM | 100 to 1000 nM | 10 to 100 nM | 
CS(=O)(=O)Nc1ccnc(-c2cnc3[nH]ccc3c2N[C@@H]2CCCN(C(=O)CC#N)C2)c1 [Example 56, (R)-N-(2-(4-((1-(2-cyanoacetyl)piperidin-3-yl)amino)-1H-pyrrolo[2,3-b]pyridin-5-yl)pyridin-4-yl)methanesulfonamide] | 10 to 100 nM | > 1000 nM | 100 to 1000 nM | 100 to 1000 nM | 100 to 1000 nM | 
C[C@@H]1C[C@H](Nc2c(-c3ccncn3)cnc3[nH]ccc23)CN(C(=O)CC#N)C1 [Example 57, 3-((3R,5S)-3-methyl-5-((5-(pyrimidin-4-yl)-1H-pyrrolo[2,3-b]pyridin-4-yl)amino)piperidin-1-yl)-3-oxopropanenitrile] | 100 to 1000 nM | > 1000 nM | 100 to 1000 nM | 10 to 100 nM | 100 to 1000 nM | 
CNC(=O)c1ccnc(-c2cnc3[nH]ccc3c2N[C@@H]2CCCN(C(=O)CC#N)C2)c1 [Example 61, (R)-2-(4-((1-(2-cyanoacetyl)piperidin-3-yl)amino)-1H-pyrrolo[2,3-b]pyridin-5-yl)-N-methylisonicotinamide] | 10 to 100 nM | > 1000 nM | 100 to 1000 nM | 10 to 100 nM | 10 to 100 nM | 

Other lines, results leading:

IC50 [1] | IC50 [2] | IC50 [3] | IC50 [4] | IC50 [5] | IC50 [6] | SMILES
10 to 100 nM | 100 to 1000 nM | 10 to 100 nM | 10 to 100 nM | 10 to 100 nM | 100 to 1000 nM | N#CCC(=O)N1CCC[C@@H](Nc2c(-c3cscn3)cnc3[nH]ccc23)C1 [Example 1, (R)-3-oxo-3-(3-((5-(thiazol-4-yl)-1H-pyrrolo[2,3-b]pyridin-4-yl)amino)piperidin-1-yl)propanenitrile]
10 to 100 nM | 100 to 1000 nM | 100 to 1000 nM | 10 to 100 nM | 100 to 1000 nM | > 1000 nM | Cc1ncc(-c2cnc3[nH]ccc3c2N[C@@H]2CCCN(C(=O)CC#N)C2)s1 [Example 3, (R)-3-(3-((5-(2-methylthiazol-5-yl)-1H-pyrrolo[2,3-b]pyridin-4-yl)amino)piperidin-1-yl)-3-oxopropanenitrile]
≤ 10 nM |  |  |  |  |  | N#CCC(=O)N1CCC[C@@H](Nc2c(-c3nncs3)cnc3[nH]ccc23)C1 [Example 8, (R)-3-(3-((5-(1,3,4-thiadiazol-2-yl)-1H-pyrrolo[2,3-b]pyridin-4-yl)amino)piperidin-1-yl)-3-oxopropanenitrile]
≤ 10 nM |  | ≤ 10 nM | ≤ 10 nM |  |  | N#CCC(=O)N1CCC[C@@H](Nc2c(-c3ccncn3)cnc3[nH]ccc23)C1 [Example 24, (R)-3-oxo-3-(3-((5-(pyrimidin-4-yl)-1H-pyrrolo[2,3-b]pyridin-4-yl)amino)piperidin-1-yl)propanenitrile]
≤ 10 nM | > 1000 nM | 10 to 100 nM | ≤ 10 nM | 10 to 100 nM |  | CN(C(=O)CC#N)C1CCN(c2nccc(-c3cnc4[nH]ccc4c3N[C@@H]3CCCN(C(=O)CC#N)C3)n2)C1 (stereo partly drawn) [Example 50, 2-cyano-N-(1-(4-(4-(((R)-1-(2-cyanoacetyl)piperidin-3-yl)amino)-1H-pyrrolo[2,3-b]pyridin-5-yl)pyrimidin-2-yl)pyrrolidin-3-yl)-N-methylacetamide]
≤ 10 nM |  | 10 to 100 nM |  |  |  | Cc1ccnc(-c2cnc3[nH]ccc3c2N[C@@H]2CCCN(C(=O)CC#N)C2)n1 [Example 60]
